Experimental data published in patent US11203600B2 (Denali Therapeutics Inc., priority 2017, dated 2021).

Each compound was assayed against GST-hRIPK1 (8-327) (Homo sapiens (Human), UniProt Q13546) (assay: Fluorescent Polarization Binding (FP Binding) assay, RIPK1). Conditions: 10 nM GST-hRIPK1 (8-327), 5 nM fluorescent-labeled ligand, RT, 30 min, mean of at least two independent experiments.
GST-hRIPK1 (8-327), sequence (Q13546 8-327): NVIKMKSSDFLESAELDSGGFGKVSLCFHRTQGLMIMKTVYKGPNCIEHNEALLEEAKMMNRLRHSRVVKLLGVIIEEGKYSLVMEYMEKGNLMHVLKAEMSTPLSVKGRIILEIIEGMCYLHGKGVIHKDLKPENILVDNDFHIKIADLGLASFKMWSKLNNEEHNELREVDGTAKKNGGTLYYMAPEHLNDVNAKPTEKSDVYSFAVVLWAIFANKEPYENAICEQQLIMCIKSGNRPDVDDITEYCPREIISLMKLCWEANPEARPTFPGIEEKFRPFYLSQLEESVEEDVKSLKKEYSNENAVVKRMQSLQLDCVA
In short: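 Binding by fluorescence polarisation at RT: 10 nM baculovirus-expressed GST-hRIPK1 (8-327) and 5 nM fluorescent ligand, 30 min, in 50 mM HEPES pH 7.5, 50 mM MgCl2, 0.02% CHAPS, 1% DMSO. FP read at ex 531/em 595 nm. IC50 from normalised percent inhibition, mean of ≥2 experiments.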
Compound `COC(C)(C)C(=O)N1CCOc2c(C#N)cncc2C1` [Example 43, 4-(2-methoxy-2-methyl-propanoyl)-3,5-dihydro-2H-pyrido[3,4-f][1,4]oxazepine-9-carbonitrile] has an IC50 of 100 to 1000 nM. `N#Cc1ccnc(N2CCC(F)(C(=O)N3CCOc4c(F)cncc4C3)CC2)n1` [Example 160, 2-[4-fluoro-4-(9-fluoro-3,5-dihydro-2H-pyrido[3,4-f][1,4]oxazepine-4-carbonyl)-1-piperidyl]pyrimidine-4-carbonitrile] was tested, and the IC50 was 100 to 1000 nM. `CCC(C)(OC)C(=O)N1CCOc2c(C#N)cncc2C1` (stereo not drawn) [Example 153, 4-(2-methoxy-2-methyl-butanoyl)-3,5-dihydro-2H-pyrido[3,4-f][1,4]oxazepine-9-carbonitrile] showed an IC50 of 0.1 to 100 nM. `N#Cc1cncc2c1OCCN(C(=O)C1(C3CC3)CC1)C2` [Example 46, 4-(1-cyclopropylcyclopropanecarbonyl)-3,5-dihydro-2H-pyrido[3,4-f][1,4]oxazepine-9-carbonitrile] showed an IC50 of 100 to 1000 nM. With `C[C@@H]1COc2c(C#N)cncc2CN1C(=O)C1CCN(c2ncc(F)cn2)CC1` [Example 104, (3R)-4-(1-(5-fluoropyrimidin-2-yl)piperidine-4-carbonyl)-3-methyl-2,3,4,5-tetrahydropyrido[3,4-f][1,4]oxazepine-9-carbonitrile] the IC50 was 0.1 to 100 nM. For `N#Cc1cncc2c1OCCN(C(=O)C1(F)CCN(c3ncc(F)cc3F)CC1)C2` [Example 192, 4-[1-(3,5-difluoro-2-pyridyl)-4-fluoro-piperidine-4-carbonyl]-3,5-dihydro-2H-pyrido[3,4-f][1,4]oxazepine-9-carbonitrile], the IC50 was 0.1 to 100 nM. Compound `COCCOc1nc(N2CCC(C(=O)N3CCOc4c(F)cncc4C3)CC2)ncc1F` [Example 130, (9-fluoro-3,5-dihydro-2H-pyrido[3,4-f][1,4]oxazepin-4-yl)-[1-[5-fluoro-4-(2-methoxyethoxy)pyrimidin-2-yl]-4-piperidyl]methanone] has an IC50 of 0.1 to 100 nM. Compound `N#Cc1cncc2c1OCCN(C(=O)C1(F)CCN(c3ncc(C4CC4)cn3)CC1)C2` [Example 100, 4-[1-(5-cyclopropylpyrimidin-2-yl)-4-fluoro-piperidine-4-carbonyl]-3,5-dihydro-2H-pyrido[3,4-f][1,4]oxazepine-9-carbonitrile] has an IC50 of 100 to 1000 nM. For `CC(C)(C(=O)N1CCOc2c(C#N)cc(F)cc2C1)C(F)F` [Example 22, 4-(3,3-difluoro-2,2-dimethyl-propanoyl)-7-fluoro-3,5-dihydro-2H-1,4-benzoxazepine-9-carbonitrile], the IC50 was 0.1 to 100 nM. `CC(C)(C(=O)N1CCOc2ccc(F)cc2C1)C(F)F` [Example 33, 3,3-difluoro-1-(7-fluoro-2,3,4,5-tetrahydro-1,4-benzoxazepin-4-yl)-2,2-dimethylpropan-1-one] showed an IC50 of 0.1 to 100 nM. In the case of `COc1ccc(N2CCC(F)(C(=O)N3CCOc4c(C#N)cncc4C3)CC2)nn1` [Example 115, 4-[4-fluoro-1-(6-methoxypyridazin-3-yl)piperidine-4-carbonyl]-3,5-dihydro-2H-pyrido[3,4-f][1,4]oxazepine-9-carbonitrile], the IC50 is reported as 100 to 1000 nM. In the case of `CC(C)(OC(F)(F)F)C(=O)N1CCOc2c(C#N)cncc2C1` [Example 69, 4-[2-methyl-2-(trifluoromethoxy)propanoyl]-3,5-dihydro-2H-pyrido[3,4-f][1,4]oxazepine-9-carbonitrile], the IC50 is reported as 0.1 to 100 nM. For `COc1ncc(F)c(N2CCC(F)(C(=O)N3CCOc4c(C#N)cncc4C3)CC2)n1` [Example 114, 4-[4-fluoro-1-(5-fluoro-2-methoxy-pyrimidin-4-yl)piperidine-4-carbonyl]-3,5-dihydro-2H-pyrido[3,4-f][1,4]oxazepine-9-carbonitrile], the IC50 was 0.1 to 100 nM. For `N#Cc1cncc2c1OCCN(C(=O)C1(F)CCN(c3ncc(OC(F)F)cn3)CC1)C2` [Example 102, 4-[1-[5-(difluoromethoxy)pyrimidin-2-yl]-4-fluoro-piperidine-4-carbonyl]-3,5-dihydro-2H-pyrido[3,4-f][1,4]oxazepine-9-carbonitrile], the IC50 was 100 to 1000 nM. In the case of `N#Cc1cncc2c1OCCN(C(=O)[C@]13CCN(c4ncc(F)cn4)C[C@H]1C3)C2` (relative stereo) [Example 89, 4-(cis-3-(5-fluoropyrimidin-2-yl)-3-azabicyclo[4.1.0]heptane-6-carbonyl)-3,5-dihydro-2H-pyrido[3,4-f][1,4]oxazepine-9-carbonitrile], the IC50 is reported as 0.1 to 100 nM. For `N#Cc1cncc2c1OCCN(C(=O)C1(F)CCN(c3ncc4c(n3)COC4)CC1)C2` [Example 165, 4-[1-(5,7-dihydrofuro[3,4-d]pyrimidin-2-yl)-4-fluoro-piperidine-4-carbonyl]-3,5-dihydro-2H-pyrido[3,4-f][1,4]oxazepine-9-carbonitrile], the IC50 was 100 to 1000 nM. `CCC(C)(CC#N)C(=O)N1CCOc2c(C#N)cncc2C1` (stereo not drawn) [Example 74, 4-[2-(cyanomethyl)-2-methyl-butanoyl]-3,5-dihydro-2H-pyrido[3,4-f][1,4]oxazepine-9-carbonitrile] gave an IC50 of 0.1 to 100 nM. Work on `CC1(C(=O)N2CCOc3c(C#N)cncc3C2)CCOC1` (stereo not drawn) [Example 42, 4-(3-methyltetrahydrofuran-3-carbonyl)-3,5-dihydro-2H-pyrido[3,4-f][1,4]oxazepine-9-carbonitrile] yielded an IC50 of 100 to 1000 nM. Compound `N#Cc1cccc2c1OCCN(C(=O)C1CCN(c3ncc(F)cn3)CC1)C2` [Example 183, 4-[1-(5-fluoropyrimidin-2-yl)piperidine-4-carbonyl]-3,5-dihydro-2H-1,4-benzoxazepine-9-carbonitrile] has an IC50 of 0.1 to 100 nM. In the case of `N#Cc1cncc2c1OCCN(C(=O)C1CCN(c3nccc(OCC(F)F)n3)CC1)C2` [Example 133, 4-[1-[4-(2,2-difluoroethoxy)pyrimidin-2-yl]piperidine-4-carbonyl]-3,5-dihydro-2H-pyrido[3,4-f][1,4]oxazepine-9-carbonitrile], the IC50 is reported as 100 to 1000 nM. `N#Cc1cncc2c1OCCN(C(=O)C1(F)CCN(c3ncc4c(n3)CCC4)CC1)C2` [Example 111, 4-[1-(6,7-dihydro-5H-cyclopenta[d]pyrimidin-2-yl)-4-fluoro-piperidine-4-carbonyl]-3,5-dihydro-2H-pyrido[3,4-f][1,4]oxazepine-9-carbonitrile] showed an IC50 of 100 to 1000 nM. Work on `N#Cc1cncc2c1OCCN(C(=O)C1(F)CCN(c3ccnc4ccnn34)CC1)C2` [Example 110, 4-(4-fluoro-1-(pyrazolo[1,5-a]pyrimidin-7-yl)piperidine-4-carbonyl)-2,3,4,5-tetrahydropyrido[3,4-f][1,4]oxazepine-9-carbonitrile] yielded an IC50 of 0.1 to 100 nM.

Same assay, conditions: GST-hRIPK1 (8-327), mean of at least two independent experiments
`N#Cc1cncc2c1OCCN(C(=O)C1(F)CCN(c3nccn4ncnc34)CC1)C2` [Example 206, 4-[4-fluoro-1-([1,2,4]triazolo[1,5-a]pyrazin-8-yl)piperidine-4-carbonyl]-3,5-dihydro-2H-pyrido[3,4-f][1,4]oxazepine-9-carbonitrile] showed an IC50 of 0.1 to 100 nM. With `O=C(C1CCN(c2ncc(F)cn2)C[C@@H]1F)N1CCOc2c(F)cncc2C1` (stereo partly drawn) [Example 247] the IC50 was 0.1 to 100 nM. `N#Cc1cncc2c1OCCN(C(=O)C1CCN(c3ccnc4c(F)cnn34)CC1F)C2` (single isomer, unassigned) [Example 304, 4-[3-Fluoro-1-(3-fluoropyrazolo[1,5-a]pyrimidin-7-yl)piperidine-4-carbonyl]-3,5-dihydro-2H-pyrido[3,4-f][1,4]oxazepine-9-carbonitrile] gave an IC50 of 0.1 to 100 nM. `CC(C(=O)N1CCOc2c(C#N)cncc2C1)(C(F)F)C1CC1` (single isomer, unassigned) [Example 259, 4-(2-Cyclopropyl-3,3-difluoro-2-methyl-propanoyl)-3,5-dihydro-2H-pyrido[3,4-f][1,4]oxazepine-9-carbonitrile] showed an IC50 of 100 to 1000 nM. In the case of `CCC(C)(C)C(=O)N1CCOc2c(F)cncc2C1` [Example 207, 1-(9-fluoro-3,5-dihydro-2H-pyrido[3,4-f][1,4]oxazepin-4-yl)-2,2-dimethyl-butan-1-one], the IC50 is reported as 100 to 1000 nM. `N#Cc1cncc2c1OCCN(C(=O)C1(F)CCN(c3ccc4c(n3)CNC4)CC1)C2` [Example 286, 4-[1-(6,7-dihydro-5H-pyrrolo[3,4-b]pyridin-2-yl)-4-fluoro-piperidine-4-carbonyl]-3,5-dihydro-2H-pyrido[3,4-f][1,4]oxazepine-9-carbonitrile] was tested, and the IC50 was over 1000 nM. `COC1CN(c2ncc(F)cn2)CCC1C(=O)N1CCOc2c(C#N)cncc2C1` (stereo not drawn) [Example 309, 4-[1-(5-fluoropyrimidin-2-yl)-3-methoxy-piperidine-4-carbonyl]-3,5-dihydro-2H-pyrido[3,4-f][1,4]oxazepine-9-carbonitrile] gave an IC50 of 100 to 1000 nM. Work on `CCC(C)(OC)C(=O)N1CCOc2c(C#N)cncc2C1` (single isomer, unassigned) [Example 283, 4-(-2-Methoxy-2-methyl-butanoyl)-3,5-dihydro-2H-pyrido[3,4-f][1,4]oxazepine-9-carbonitrile] yielded an IC50 of 100 to 1000 nM. `N#Cc1cncc2c1OCCN(C(=O)C1CCN(c3ccnc4c(F)cnn34)CC1F)C2` (single isomer, unassigned) [Example 303, 4-[3-Fluoro-1-(3-fluoropyrazolo[1,5-a]pyrimidin-7-yl)piperidine-4-carbonyl]-3,5-dihydro-2H-pyrido[3,4-f][1,4]oxazepine-9-carbonitrile] gave an IC50 of 100 to 1000 nM. Work on `CC(C)(C(=O)N1CCOc2c(C#N)cncc2C1)[C@H]1C[C@@H](Cn2nccn2)C1` [Example 291, cis-4-[2-methyl-2-[3-(triazol-2-ylmethyl)cyclobutyl]propanoyl]-3,5-dihydro-2H-pyrido[3,4-f][1,4]oxazepine-9-carbonitrile] yielded an IC50 of 100 to 1000 nM. Compound `N#Cc1cncc2c1OCC1(CC1)N(C(=O)C1CCN(c3ncc(F)cn3)CC1)C2` [Example 230, 4-[1-(5-fluoropyrimidin-2-yl)piperidine-4-carbonyl]spiro[2,5-dihydropyrido[3,4-f][1,4]oxazepine-3,1′-cyclopropane]-9-carbonitrile] has an IC50 of 100 to 1000 nM.
